Our source for the Ki and Ratio Ki values is ChEMBL document CHEMBL3745608, “Structure-based design, synthesis, and biological evaluation of Leu-Arg dipeptide analogs as novel hepsin inhibitors” (Bioorg Med Chem Lett, 2016).

The target in assay [1] is Serine protease hepsin (Homo sapiens, UniProt P05981). Put plainly: Inhibition of human recombinant hepsin using Boc-QAR-AMC as substrate preincubated for 30 mins followed by substrate addition measured for 15 to 120 mins by plate reader analysis.
The target in assay [2] is T1, Suppressor of tumorigenicity 14 protein homolog (Mus musculus, UniProt P56677).
T1 sequence (P56677 whole entry): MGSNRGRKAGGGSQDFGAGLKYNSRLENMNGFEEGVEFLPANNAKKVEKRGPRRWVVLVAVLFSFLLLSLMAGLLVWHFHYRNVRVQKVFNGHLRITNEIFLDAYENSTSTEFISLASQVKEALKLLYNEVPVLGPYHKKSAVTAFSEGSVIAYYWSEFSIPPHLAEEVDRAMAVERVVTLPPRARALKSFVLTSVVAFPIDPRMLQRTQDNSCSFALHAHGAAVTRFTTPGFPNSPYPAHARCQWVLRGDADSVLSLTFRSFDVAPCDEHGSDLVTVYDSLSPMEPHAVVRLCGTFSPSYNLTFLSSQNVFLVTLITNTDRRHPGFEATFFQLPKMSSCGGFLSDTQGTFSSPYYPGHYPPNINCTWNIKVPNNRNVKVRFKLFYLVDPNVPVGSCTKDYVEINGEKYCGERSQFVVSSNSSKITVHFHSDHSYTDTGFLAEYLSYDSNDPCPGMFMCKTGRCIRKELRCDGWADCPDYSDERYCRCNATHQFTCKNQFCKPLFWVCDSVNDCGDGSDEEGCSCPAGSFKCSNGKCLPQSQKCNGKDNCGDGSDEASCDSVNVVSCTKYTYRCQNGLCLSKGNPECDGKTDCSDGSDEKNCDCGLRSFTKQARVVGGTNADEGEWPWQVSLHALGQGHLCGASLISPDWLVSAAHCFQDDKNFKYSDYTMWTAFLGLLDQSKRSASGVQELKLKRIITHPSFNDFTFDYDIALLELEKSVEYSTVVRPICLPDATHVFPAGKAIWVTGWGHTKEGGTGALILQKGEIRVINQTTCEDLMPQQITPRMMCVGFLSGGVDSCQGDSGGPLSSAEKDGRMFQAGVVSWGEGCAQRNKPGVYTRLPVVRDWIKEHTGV
Put plainly: Inhibition of mouse recombinant matriptase using Boc-QAR-AMC as substrate preincubated for 30 mins followed by substrate addition measured for 15 to 120 mins by plate reader analysis.

The nature of assay [3]: Selectivity ratio of Ki for mouse recombinant matriptase to Ki for human recombinant hepsin.

pKi: −log10 of the molar value. Where a SMILES comes first, the peptide text is derived from it.

Serine protease hepsin, sequence (P05981 1-162 limits assumed): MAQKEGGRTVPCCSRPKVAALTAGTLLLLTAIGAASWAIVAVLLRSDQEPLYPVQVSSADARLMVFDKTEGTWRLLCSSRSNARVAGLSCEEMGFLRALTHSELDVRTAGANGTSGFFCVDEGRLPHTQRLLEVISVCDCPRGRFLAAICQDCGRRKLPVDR
Serine protease hepsin, sequence (P05981 163-417 limits assumed): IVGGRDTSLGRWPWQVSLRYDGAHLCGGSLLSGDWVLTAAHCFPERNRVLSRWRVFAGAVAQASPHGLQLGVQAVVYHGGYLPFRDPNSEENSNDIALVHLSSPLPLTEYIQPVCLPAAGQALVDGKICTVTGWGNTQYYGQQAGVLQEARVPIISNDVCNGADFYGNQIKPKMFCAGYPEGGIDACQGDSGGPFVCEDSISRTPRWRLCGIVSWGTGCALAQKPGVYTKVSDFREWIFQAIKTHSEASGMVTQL

Consider `CC(=O)N[C@@H](CC(C)C)C(=O)N[C@@H](CCCNC(=N)N)C(=O)c1nccs1`, for which the figures for the negative-log Ki (pKi) in assay [1] and in assay [2] were 7.65 and 6.48, respectively. Besides, the Ratio Ki in assay [3] was determined as 8.
As for `CC(=O)N[C@@H](CCC(N)=O)C(=O)N[C@@H](CC(C)C)C(=O)N[C@@H](CCCNC(=N)N)C(=O)c1nccs1`, the values for the pKi in assay [1] and in assay [2] were 8.98 and 7.95, respectively. In addition, the Ratio Ki in assay [3] was found to be 8.
For `CC(=O)N[C@@H](CCCCN)C(=O)N[C@@H](CCC(N)=O)C(=O)N[C@@H](CC(C)C)C(=O)N[C@@H](CCCNC(=N)N)C(=O)c1nccs1`, the pKi in assay [1] was 8.84; in assay [2], 7.98.
`CC(=O)N[C@@H](CCC(N)=O)C(=O)N[C@@H](CC(C)C)C(=O)N[C@H](CCCNC(=N)N)C(=O)c1nccs1`: the pKi in assay [1] is 8.54; in assay [2], 7.95. Also, in assay [3], the Ratio Ki stood at 8.
As for `CC(=O)N[C@@H](CCCNC(=N)N)C(=O)c1nccs1`, the pKi in assay [1] and in assay [2] was less than 5.00 in each case.
For the compound `CC(=O)N[C@@H](CC(C)C)C(=O)N[C@H](CCCNC(=N)N)C(=O)c1nccs1`, the pKi was 7.67 in assay [1] and 6.61 in assay [2]. For the same compound, the Ratio Ki in assay [3] worked out at 8.
Consider `CC(=O)N[C@@H](CCCCN)C(=O)N[C@@H](CCC(N)=O)C(=O)N[C@@H](CC(C)C)C(=O)N[C@H](CCCNC(=N)N)C(=O)c1nccs1`, for which the values for the pKi in assay [1] and in assay [2] were 9.08 and 8.10, respectively.
Regarding `CC(=O)N[C@@H](CC(C)C)C(=O)N[C@@H](CCCN=C(N)N)C(=O)c1nc2ccccc2s1`, the figures for the pKi in assay [1] and in assay [2] were 8.47 and 6.64, respectively. Besides, the Ratio Ki in assay [3] is greater than 60.
`CC(=O)N[C@@H](CCCCN)C(=O)N[C@@H](CCC(N)=O)C(=O)N[C@@H](CC(C)C)C(=O)O` (Ac-Lys-Gln-Leu-OH): the pKi in assay [1] and in assay [2] was less than 5.00 each time.
Take `CC(=O)N[C@@H](CC(C)C)C(=O)N[C@H](CCCNC(=N)N)C(=O)c1nc2ccccc2s1`: the values for the pKi in assay [1] and in assay [2] were 8.54 and 6.75, respectively. Besides, the Ratio Ki in assay [3] is greater than 60.
As to `CC(=O)N[C@@H](CC(C)C)C(=O)N[C@@H](CCCNC(=N)N)C(=O)c1ccccc1`, the pKi in assay [1] and in assay [2] was less than 5.00 throughout.
For `CC(=O)N[C@@H](CC(C)C)C(=O)N[C@H](CCCNC(=N)N)C(=O)c1ccccc1`, the pKi in assay [1] and in assay [2] was less than 5.00 throughout.

Broadly, the pKi is the negative decadic logarithm of the Ki, by convention in mol/L.
